Experimental data: the supplement of paper PMC10307832

Assays:
Test in all cases: relative viability (nuclei count vs DMSO), 5 days (fraction); higher = more cells survive
[1] = compound: CCC1=CN=CN=C1N2CCN(CC2)CC3=NC4=C(N3)C=C(C=C4)C(F)(F)F + CC(=O)c1c(C)c2cnc(Nc3ccc(N4CCNCC4)cn3)nc2n(C2CCCC2)c1=O [Palbociclib] (partner 0.5 µM)
Procedure, shortened: (§1)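 A single step with final 0.05% Triton X-100, 1% formaldehyde and 1 ug/ml Hoechst fixed the cells and stained nuclei 5 days after treatment. Lung cancer cell lines in 1536-well plates had been treated by pin tool the day after seeding with one drug alone or a fixed anchor-drug dose plus five library-drug doses (not always all listed) in √10 steps, and nuclei were counted on 4× images. Relative viability is the ratio of nuclei in treated wells to nuclei in vehicle wells, taken as the median of duplicate plates.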

[2] = compound: CCC1=CN=CN=C1N2CCN(CC2)CC3=NC4=C(N3)C=C(C=C4)C(F)(F)F + CS(=O)(=O)N1CCN(Cc2cc3nc(-c4cccc5[nH]ncc45)nc(N4CCOCC4)c3s2)CC1 [Pictilisib] (partner 1 µM)
Procedure, shortened: as §1

[3] = compound: CCn1c(-c2nonc2N)nc2cnc(Oc3cccc(NC(=O)c4ccc(OCCN5CCOCC5)cc4)c3)cc21 + CS(=O)(=O)CCNCc1ccc(-c2ccc3ncnc(Nc4ccc(OCc5cccc(F)c5)c(Cl)c4)c3c2)o1 [Lapatinib] (partner 2 µM)
Procedure, shortened: as §1

[4] = compound: CCn1c(-c2nonc2N)nc2cnc(Oc3cccc(NC(=O)c4ccc(OCCN5CCOCC5)cc4)c3)cc21 + O=C(c1cc(Cc2n[nH]c(=O)c3ccccc23)ccc1F)N1CCN(C(=O)C2CC2)CC1 [Olaparib] (partner 8 µM)
Procedure, shortened: as §1

Cell Line	relative viability ([1]; first compound 0.04 µM)	relative viability ([1]; first compound 0.1265 µM)	relative viability ([1]; first compound 0.4 µM)	relative viability ([1]; first compound 1.265 µM)	relative viability ([1]; first compound 4 µM)	relative viability ([2]; first compound 0.04 µM)	relative viability ([2]; first compound 0.1265 µM)	relative viability ([2]; first compound 0.4 µM)	relative viability ([2]; first compound 1.265 µM)	relative viability ([2]; first compound 4 µM)	relative viability ([3]; first compound 0.04 µM)	relative viability ([3]; first compound 0.1265 µM)	relative viability ([3]; first compound 0.4 µM)	relative viability ([3]; first compound 1.265 µM)	relative viability ([3]; first compound 4 µM)	relative viability ([4]; first compound 0.04 µM)	relative viability ([4]; first compound 0.1265 µM)	relative viability ([4]; first compound 0.4 µM)	relative viability ([4]; first compound 1.265 µM)	relative viability ([4]; first compound 4 µM)
NCI-H838	0.231	0.22	0.215	0.178	0.218	0.507	0.531	0.41	0.258	0.482	0.804	0.485	0.323	0.281	0.261	0.405	0.347	0.383	0.221	0.222
HARA	0.281	0.314	0.283		0.295	0.311	0.326	0.321	0.302	0.471	0.826	0.732	0.27	0.217	0.213	0.607	0.965	0.654	0.294	0.139
NCI-H23	0.496	0.584	0.541	0.42	0.531	0.58	0.439	0.41	0.348	0.432	1.34	1.17		0.688	0.698	0.33	0.3	0.359	0.253	0.177
LCLC-97TM1	0.196	0.2	0.228	0.282	0.196	0.181	0.198	0.181	0.204	0.214	1.78	1.54		1.74	1	0.518	0.381		0.387	0.423
LC-2-ad	0.471	0.48	0.501	0.466	0.472	0.459	0.512	0.424	0.328	0.326	0.992	0.968	0.578	0.435	0.412	0.753	0.677	0.716	0.438	0.334
SW 1573	0.345	0.406	0.384	0.262	0.32	0.441	0.43	0.44	0.474	0.426	1.21	0.904	0.685	0.627	0.353	0.594	0.4	0.287	0.24	0.183
EKVX	0.405	0.387	0.325	0.337	0.377	0.395	0.388	0.373	0.307	0.444	0.446	0.221	0.177	0.197	0.229	1.18	0.856	0.802	0.635	0.79
NCI-H2087	0.264	0.235	0.242	0.184	0.201	0.852	0.906	0.883	0.819	0.653		0.693	0.871	0.499	0.677	0.802	0.539	0.559	0.483	0.586
HCC-827	0.497	0.53	0.498	0.431	0.468	0.978	1.04	1.03	0.957	0.994	0.195	0.273	0.197	0.251	0.21	0.686	0.693	0.698	0.501	0.509
NCI-H661	0.378	0.398	0.416	0.386	0.38	0.358	0.402	0.412		0.366	0.47	0.457	0.457	0.39	0.385	0.693	0.757	0.749	0.579	0.489
CAL-12T	0.558	0.409	0.601	0.288	0.556		0.541	0.295	0.314	0.361	1.25	0.817	0.849		0.685	0.825	0.795	0.73	0.635	0.539
NCI-H2342	0.569	0.514	0.511	0.463	0.477											0.439	0.508	0.469	0.368	0.361
SW 900	0.463	0.497	0.412		0.556											0.899	0.924	1.13	0.826	0.694
IA-LM						0.409	0.33	0.323	0.325	0.3	1.14	0.915	1.11	0.913	0.909	0.967	0.834	0.791	0.796	0.765
EPLC-272H	0.338	0.302	0.324	0.318	0.327	0.305	0.285	0.287	0.302	0.284	1.46	0.903	0.796	0.187	0.827	1.09	0.928	0.827	0.449	0.365
A-427	0.451	0.489	0.499	0.479	0.475	0.675	0.685	0.682	0.637	0.574	1.2	1.04	0.903	0.993	0.582	0.704	0.685	0.601	0.198	0.264
NCI-H650	0.318	0.344	0.292	0.276	0.313	0.875	0.82	0.983	0.736	0.841	1.29	0.686	0.5	0.269	0.472	0.374	0.377	0.279	0.259	0.236
NCI-H1975	0.62	0.479	0.568	0.461	0.577	0.311	0.307	0.268	0.287	0.288	0.778	0.729	0.477	0.435	0.331	0.9	0.772	0.623	0.389	0.271
NCI-H358	0.135	0.136	0.121	0.128	0.141	0.4	0.282	0.349	0.289	0.359	0.474	0.479	0.29	0.525	0.316	0.709	0.612	0.792	0.572	0.521

Cell Line	relative viability ([1]; first compound 0.04 µM)	relative viability ([1]; first compound 0.1265 µM)	relative viability ([1]; first compound 0.4 µM)	relative viability ([1]; first compound 1.265 µM)	relative viability ([1]; first compound 4 µM)	relative viability ([2]; first compound 0.04 µM)	relative viability ([2]; first compound 0.1265 µM)	relative viability ([2]; first compound 0.4 µM)	relative viability ([2]; first compound 1.265 µM)	relative viability ([2]; first compound 4 µM)	relative viability ([3]; first compound 0.04 µM)	relative viability ([3]; first compound 0.1265 µM)	relative viability ([3]; first compound 0.4 µM)	relative viability ([3]; first compound 1.265 µM)	relative viability ([3]; first compound 4 µM)	relative viability ([4]; first compound 0.04 µM)	relative viability ([4]; first compound 0.1265 µM)	relative viability ([4]; first compound 0.4 µM)	relative viability ([4]; first compound 1.265 µM)	relative viability ([4]; first compound 4 µM)
RERF-LC-KJ	1.05	1.06	1.02	0.971	0.923	0.558	0.498	0.487	0.444	0.505	0.933	0.827	0.717	0.684	0.606	0.898	0.84	0.759	0.447	0.388
NCI-H1792	0.68	0.616	0.687	0.542	0.611	0.361	0.3	0.215	0.188	0.25	1	0.869		0.567	0.793	0.449	0.345	0.338	0.244	0.37
NCI-H647	0.518	0.345	0.346	0.292	0.374		0.433			0.399	1.26	0.774	0.634	0.526	0.548	0.718	0.512	0.428	0.348	0.302
SK-LU-1	0.412	0.394	0.41	0.26	0.418	0.573	0.494	0.469		0.486	1.24	0.662	0.611	0.493	0.449	0.571	0.305	0.327	0.235	0.257
NCI-H441	0.205	0.204	0.204	0.17	0.257	0.571	0.435	0.451	0.435	0.418						0.74	0.589	0.454	0.439	0.394
COR-L 105	0.416	0.444	0.371	0.363	0.428	0.372	0.376	0.385	0.247	0.464	0.327	0.412	0.278	0.288	0.297	0.631	0.617	0.699	0.554	0.457
NCI-H1993	0.661	0.586	0.622	0.586	0.654	0.837	0.808	0.708	0.765	0.834	0.797	0.798		0.754	0.734	1.06	1	1.06	1.13	0.849
NCI-H1437	0.324	0.309	0.263	0.303	0.269	0.511	0.404	0.395	0.336	0.439	0.826	0.679	0.58	0.536	0.5	0.696	0.624	0.591	0.485	0.49
EBC-1						0.459	0.318	0.333	0.261	0.352	0.224	0.206	0.196	0.179	0.197	0.777	0.716	0.637	0.492	0.535
NCI-H596						0.399	0.366	0.396	0.327	0.413	1.04	0.942	0.978	0.87	0.97	0.622	0.666	0.739	0.739	0.585
NCI-H1563						0.643	0.684	0.65	0.616	0.698	1.01	0.822	0.804	0.782	0.673					
NCI-H1648	0.235			0.296	0.303											0.604	0.577	1.35	1.26	1.5
NCI-H1299						0.819	0.728	0.972	0.752	0.673	0.951	0.86	0.836	0.724	0.625	0.975	0.958	0.867	0.712	0.52
A549						0.547	0.488	0.467	0.507	0.426	1.25	0.916	0.884	0.118	0.107	0.499	0.343	0.122	0.0557	0.102
NCI-H1703						0.238	0.277	0.263	0.232	0.227	1.2	0.939	0.715	0.376	0.361	0.469	0.452	0.675	0.333	0.303
NCI-H522	1.02	1.11	0.956	0.818	0.916											0.661	0.614	0.665	0.514	0.554
Calu-6						1.07	0.877	0.865	0.822	0.73	1.22	0.932	0.985	0.616	0.517	0.569	0.528	0.541	0.381	0.328
ChaGo-K-1	0.976	0.946	0.929	0.907	0.881		0.707	0.63	0.668	0.557						0.512	0.443	0.443	0.399	0.387
LCLC-103H	0.501	0.471	0.436	0.485	0.448	0.599	0.614	0.499	0.435	0.559						0.908	0.816	0.712	0.717	0.715
